Measured values reported in patent US7517874B2 (priority 2007, dated 2009).
Like-named read-outs stand apart in the source and are kept apart here.

Experiments:
[1] = biological target: human CB1 receptor (hCB1) (Homo sapiens, UniProt P21554); test: cell-based; type: cell-based
Summary of the method: (§1)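 First, cells in IBMX-containing HEPES-buffered HBSS are raised to elevated cAMP with 2-8 μM NKH-477 for 30 min. Data are normalised to the forskolin and forskolin + 1 μM CP55,940 controls.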

rat CB2 receptor (rCB2) = biological target: T1, rat CB2 receptor (rCB2) (Rattus norvegicus, UniProt Q9QZN9); test: cell-based; type: cell-based; settings: for +/− RCB2: agonist or inverse agonist at rCB2
T1 sequence (Q9QZN9 1-360): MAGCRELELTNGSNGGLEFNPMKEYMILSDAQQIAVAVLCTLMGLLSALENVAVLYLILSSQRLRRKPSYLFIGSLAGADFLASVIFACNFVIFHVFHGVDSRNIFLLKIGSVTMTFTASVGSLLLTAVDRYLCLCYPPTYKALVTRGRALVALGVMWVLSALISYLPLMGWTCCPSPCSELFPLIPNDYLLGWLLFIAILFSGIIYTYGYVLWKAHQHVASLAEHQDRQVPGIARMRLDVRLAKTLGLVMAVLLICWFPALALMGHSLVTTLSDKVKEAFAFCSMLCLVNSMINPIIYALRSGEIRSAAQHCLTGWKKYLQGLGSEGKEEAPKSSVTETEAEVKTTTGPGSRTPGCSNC
Summary of the method: as §1

[2] = groups >100 nM-10 μM and >10 μM, cAMP, CHO-K1 hCB1, read-out: EC50 HCB1

Sequence of human CB1 receptor (hCB1) (P21554 whole entry): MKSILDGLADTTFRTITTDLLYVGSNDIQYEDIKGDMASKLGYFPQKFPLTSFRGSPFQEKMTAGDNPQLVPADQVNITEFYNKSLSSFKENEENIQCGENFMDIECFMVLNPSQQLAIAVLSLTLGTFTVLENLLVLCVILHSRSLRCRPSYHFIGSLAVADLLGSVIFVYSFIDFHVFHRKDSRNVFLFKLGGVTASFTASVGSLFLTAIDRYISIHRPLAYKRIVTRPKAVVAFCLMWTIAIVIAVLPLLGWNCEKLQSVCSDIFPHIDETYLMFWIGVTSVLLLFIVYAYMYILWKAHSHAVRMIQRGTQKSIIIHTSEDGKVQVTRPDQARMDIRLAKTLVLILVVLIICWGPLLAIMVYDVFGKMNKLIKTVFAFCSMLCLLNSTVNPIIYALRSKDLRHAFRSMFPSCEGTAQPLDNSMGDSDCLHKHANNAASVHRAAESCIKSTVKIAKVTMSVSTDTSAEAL

SMILES | EC50 [1] | +/− RCB2 (rat CB2 receptor (rCB2)) | EC50 (rat CB2 receptor (rCB2)) | +/− HCB1 ([1]; agonist or inverse agonist at hCB1) | EC50 [1, 2]
CNC(=O)[C@@H](NC(=O)c1nc(-c2ccc(F)cc2)n2c1CN(C)CC2)C(C)(C)C [Compound 247, (S)-N-(3,3-dimethyl-1-(methylamino)-1-oxobutan-2-yl)-3-(4-fluorophenyl)-7-methyl-5,6,7,8-tetrahydroimidazo[1,5-a]pyrazine-1-carboxamide] | > 10000 nM | + |  |  | 
CNC(=O)[C@@H](NC(=O)c1nc(-c2cc(F)cc(F)c2)n2c1CN(C)CCC2)C(C)(C)C [Compound 331, (S)-3-(3,5-difluorophenyl)-N-(3,3-dimethyl-1-(methylamino)-1-oxobutan-2-yl)-8-methyl-6,7,8,9-tetrahydro-5H-imidazo[1,5-a][1,4]diazepine-1-carboxamide] | > 10000 nM | + |  |  | 
CN1CCn2c(-c3ccccc3)nc(C(=O)NCC3CCOCC3)c2C1 [Compound 236, 7-methyl-3-phenyl-N-((tetrahydro-2H-pyran-4-yl)methyl)-5,6,7,8-tetrahydroimidazo[1,5-a]pyrazine-1-carboxamide] | > 10000 nM |  | > 10 µM |  | 
C[C@H](NC(=O)c1nc(-c2ccccc2)n2c1CN(C(=O)C1CC1)CC2)c1ccccc1 [Compound 124, (S)-7-(cyclopropanecarbonyl)-3-phenyl-N-(1-phenylethyl)-5,6,7,8-tetrahydroimidazo[1,5-a]pyrazine-1-carboxamide] | > 10000 nM | − |  |  | 
CNC(=O)[C@H](CC(C)(C)C)NC(=O)c1nc(-c2ccc(F)c(F)c2)n2c1CN(C)CCC2 [Compound 552, (S)-3-(3,4-diflurophenyl)-N-(4,4-dimethyl-1-(methylamino)-1-oxopentan-2-yl)-8-methyl-6,7,8,9-tetrahydro-5H-imidazo[1,5-a][1,4]diazepine-1-carboxamide] |  | + |  | + | 
O=C(NC1CCCCC1)c1nc(-c2ccccc2)n2c1CN(CCO)CC2 [Compound 166, N-cyclohexyl-7-(2-hydroxyethyl)-3-phenyl-5,6,7,8-tetrahydroimidazo[1,5-a]pyrazine-1-carboxamide] |  | − |  |  | > 10000 nM
COC(=O)N1CCn2c(-c3ccccc3)nc(C(=O)NC3CCCCC3)c2C1 [Compound 187, methyl 1-(cyclohexylcarbamoyl)-3-phenyl-5,6-dihydroimidazo[1,5-a]pyrazine-7(8H)-carboxylate] |  | − |  |  | > 10000 nM
CCN1CCn2c(-c3ccccc3)nc(C(=O)N[C@H](C)C3CCCCC3)c2C1 [Compound 164, (R)-N-(1-cyclohexylethyl)-7-ethyl-3-phenyl-5,6,7,8-tetrahydroimidazo[1,5-a]pyrazine-1-carboxamide] | > 10000 nM | − |  |  | 
CNC(=O)[C@@H](NC(=O)c1nc(-c2cccc(F)c2)n2c1CN(C)CC2)C(C)(C)C [Compound 244, (S)-N-(3,3-dimethyl-1-(methylamino)-1-oxobutan-2-yl)-3-(3-fluorophenyl)-7-methyl-5,6,7,8-tetrahydroimidazo[1,5-a]pyrazine-1-carboxamide] | > 10000 nM | + |  |  | 
CNC(=O)[C@H](CC(C)C)NC(=O)c1nc(-c2cc(F)ccc2F)n2c1CN(C)CCC2 [Compound 532, (S)-3-(2,5-difluorophenyl)-8-methyl-N-(4-methyl-1-(methylamino)-1-oxopentan-2-yl)-6,7,8,9-tetrahydro-5H-imidazo[1,5-a][1,4]diazepine-1-carboxamide] | > 10000 nM | − |  |  | 
CNC(=O)[C@@H](NC(=O)c1nc(-c2ccccc2)n2c1CN(CC(C)C)CC2)C(C)(C)C [Compound 148, (S)-N-(3,3-dimethyl-1-(methylamino)-1-oxobutan-2-yl)-7-isobutyl-3-phenyl-5,6,7,8-tetrahydroimidazo[1,5-a]pyrazine-1-carboxamide] | > 10000 nM | − |  |  | 
CCCNC(=S)N1CCn2c(-c3ccccc3)nc(C(=O)N[C@H](C(=O)NC)C(C)(C)C)c2C1 [Compound 195, (S)-N-(3,3-dimethyl-1-(methylamino)-1-oxobutan-2-yl)-3-phenyl-7-(propylcarbamothioyl)-5,6,7,8-tetrahydroimidazo[1,5-a]pyrazine-1-carboxamide] | > 10000 nM | − |  |  | 
CNC(=O)[C@H](CC(C)C)NC(=O)c1nc(-c2ccc(Cl)cc2F)n2c1CN(C)CCC2 [Compound 529, (S)-3-(4-chloro-2-fluorophenyl)-8-methyl-N-(4-methyl-1-(methylamino)-1-oxopentan-2-yl)-6,7,8,9-tetrahydro-5H-imidazo[1,5-a][1,4]diazepine-1-carboxamide] | > 10000 nM | + |  |  | 
CNC(=O)[C@@H](NC(=O)c1nc(-c2cccc(Cl)c2F)n2c1CN(C)CCC2)C(C)(C)C [Compound 356, (S)-3-(3-chloro-2-fluorophenyl)-N-(3,3-dimethyl-1-(methylamino)-1-oxobutan-2-yl)-8-methyl-6,7,8,9-tetrahydro-5H-imidazo[1,5-a][1,4]diazepine-1-carboxamide] | > 10000 nM |  | > 10 µM |  | 
C/C=C/c1nc(C(=O)N[C@H](C(=O)NC)C(C)(C)C)c2n1CCN(C)C2 [Compound 243, (S,E)-N-(3,3-dimethyl-1-(methylamino)-1-oxobutan-2-yl)-7-methyl-3-(prop-1-enyl)-5,6,7,8-tetrahydroimidazo[1,5-a]pyrazine-1-carboxamide] | > 10000 nM | + |  |  | 
C=C(C)c1nc(C(=O)N[C@H](C(=O)NC)C(C)(C)C)c2n1CCN(C)C2 [Compound 267, (S)-N-(3,3-dimethyl-1-(methylamino)-1-oxobutan-2-yl)-7-methyl-3-(prop-1-en-2-yl)-5,6,7,8-tetrahydroimidazo[1,5-a]pyrazine-1-carboxamide] | > 10000 nM | + |  |  | 
CNC(=O)[C@@H](NC(=O)c1nc(C#Cc2ccccc2)n2c1CN(C)CC2)C(C)(C)C [Compound 204, (S)-N-(3,3-dimethyl-1-(methylamino)-1-oxobutan-2-yl)-7-methyl-3-(phenylethynyl)-5,6,7,8-tetrahydroimidazo[1,5-a]pyrazine-1-carboxamide] | > 10000 nM |  | > 10 µM |  | 
CNC(=O)[C@@H](NC(=O)c1nc(-c2cc(C(F)(F)F)ccc2F)n2c1CN(C)CCC2)C(C)(C)C [Compound 363, (S)-N-(3,3-dimethyl-1-(methylamino)-1-oxobutan-2-yl)-3-(2-fluoro-5-(trifluoromethyl)phenyl)-8-methyl-6,7,8,9-tetrahydro-5H-imidazo[1,5-a][1,4]diazepine-1-carboxamide] | > 10000 nM | − |  |  | 
CCc1nc(C(=O)N[C@H](C(=O)NC)C(C)(C)C)c2n1CCN(C)C2 [Compound 310, (S)-N-(3,3-dimethyl-1-(methylamino)-1-oxobutan-2-yl)-3-ethyl-7-methyl-5,6,7,8-tetrahydroimidazo[1,5-a]pyrazine-1-carboxamide] | > 10000 nM | − |  |  | 
CNC(=O)[C@@H](NC(=O)c1nc(-c2ccccc2)n2c1CN(C(=O)C1CC1)CC2)C(C)(C)C [Compound 126, (S)-7-(cyclopropanecarbonyl)-N-(3,3-dimethyl-1-(methylamino)-1-oxobutan-2-yl)-3-phenyl-5,6,7,8-tetrahydroimidazo[1,5-a]pyrazine-1-carboxamide] | > 10000 nM | − |  |  | 
